Data taken from ChEMBL document CHEMBL3046665, “In vitro cytotoxicity, antimicrobial, and metal-chelating activity of triterpene saponins from tea seed grown in Kangra valley, India” (Med Chem Res, 2013).
Structures can show the parent of a compound that is named as a salt.

Columns and labels:
Type in all cases: functional
[1] = system: PC-3; experiment: Cytotoxicity against Homo sapiens (human) PC3 cells assessed as growth inhibition at 1 uM after 48 hr by SRB assay; settings: PC-3, 48 h, read-out: GI
[2] = system: MCF7; experiment: Cytotoxicity against Homo sapiens (human) MCF7 cells assessed as growth inhibition at 1 uM after 48 hr by SRB assay; settings: MCF7, 48 h, read-out: GI
[3] = system: COLO 205; experiment: Cytotoxicity against Homo sapiens (human) COLO205 cells assessed as growth inhibition at 1uM after 48 hr by SRB assay; settings: COLO 205, 48 h, read-out: GI
[4] = system: OVCAR-5; experiment: Cytotoxicity against Homo sapiens (human) OVCAR5 cells assessed as growth inhibition at 1 uM after 48 hr by SRB assay; settings: OVCAR-5, 48 h, read-out: GI

Row | SMILES | inhibition of growth at 1 µM [1] | inhibition of growth at 1 µM [2] | inhibition of growth at 1 µM [3] | inhibition of growth at 1 µM [4]
1 | CC(=O)O[C@H]1C(=O)[C@@]2(C)[C@H]([C@H](OC(=O)c3ccccc3)[C@]3(O)C[C@H](OC(=O)[C@H](O)[C@@H](NC(=O)c4ccccc4)c4ccccc4)C(C)=C1C3(C)C)[C@]1(OC(C)=O)CO[C@@H]1C[C@@H]2O [PACLITAXEL] | 71% | 80% | 57% | 73%
2 | COc1cccc2c1C(=O)c1c(O)c3c(c(O)c1C2=O)C[C@@](O)(C(=O)CO)C[C@@H]3O[C@H]1C[C@H](N)[C@H](O)[C@H](C)O1 [DOXORUBICIN HYDROCHLORIDE] | 66% | 72% | 69% | 60%
